The results in this text go back to ChEMBL document CHEMBL6092165, “Discovery of sp3-rich diazatricycloundecanes as lysosomotropic autophagy inhibitors” (Eur J Med Chem, 2024).

In experiment [1] the test system is HeLa. In words: Antiproliferative activity against human HeLa cells assessed as inhibition of cell growth incubated for 72 hrs by MTT assay. The class given is functional, cell-based. For orientation: Tetrazolium assays rely on reduction of a dye to a coloured formazan, in cell work by metabolically active cells.
The nature of experiment [2]: Induction of autophagic flux in human HeLa cells overexpressing EGFP-LC3 assessed as fold increase in GFP-tagged LC3-II protein expression at 10 uM incubated for 24 hrs by Western blotting analysis (reference value: 1). The class given is functional. On the technique in general: In western blotting, separated proteins are transferred to a membrane and probed.
Experiment [3] concerns HeLa. The experiment can be described thus: Induction of autophagic flux in human HeLa cells overexpressing EGFP-LC3 assessed as increase in GFP-tagged LC3-II protein expression at 10 uM incubated for 24 hrs by Western blotting analysis. In kind it is functional, cell-based.
The subject of experiment [4] is HT-1080. The experiment can be described thus: Antiproliferative activity against human HT-1080 cells assessed as inhibition of cell growth incubated for 72 hrs by MTT assay. In kind it is functional, cell-based.
Experiment [5] concerns Lysosomal membrane. In words: Induction of lysosomal membrane permeabilization in human HeLa cells assessed as increase fluorescence intensity at 10 uM incubated for 24 hrs in presence of chloroquine by LysoTracker Red DND-99 dye based confocal laser microscopic analysis. In kind it is subcellular.
The subject of experiment [6] is Lysosomal membrane. In words: Disruption of lysosomal membrane in human HT-1080 cells assessed as downregulation of cathepsin B expression incubated for 24 hrs by Western blotting analysis. In kind it is subcellular.
In experiment [7] the test system is HeLa. The experiment can be described thus: Induction of autophagy in human HeLa cells overexpressing EGFP-LC3 assessed as increase in LC3-II puncta formation at 10 uM incubated for 24 hrs in presence of rapamycin by Hoechst staining based immunofluorescence analysis. The class given is functional, cell-based.
Experiment [8] can be described thus: Induction of autophagic flux in human HeLa cells overexpressing EGFP-LC3 assessed as fold increase in GFP-tagged LC3-II protein expression at 1 uM incubated for 24 hrs by Western blotting analysis (reference value: 1). The class given is functional.
Experiment [9] has as its system Lysosomal membrane. In words: Induction of lysosomal membrane permeabilization in human HeLa cells assessed as increase fluorescence intensity at 10 uM incubated for 24 hrs in presence of bafilomycin A1 by LysoTracker Red DND-99 dye based confocal laser microscopic analysis. The class given is subcellular.
Experiment [10] is described as follows: Induction of autophagic flux in human HeLa cells overexpressing EGFP-LC3 assessed as fold increase in GFP-tagged LC3-II protein expression at 3 uM incubated for 24 hrs by Western blotting analysis (reference value: 1). The class given is functional.
For experiment [11], the system named is HeLa. The experiment can be described thus: Induction of autophagy in human HeLa cells overexpressing EGFP-LC3 assessed as increase in LC3-II puncta formation at 10 uM incubated for 24 hrs in presence of chloroquine by Hoechst staining based immunofluorescence analysis. In kind it is functional, cell-based.
Experiment [12] concerns Lysosomal membrane. In words: Disruption of lysosomal membrane in human HT-1080 cells assessed as downregulation of cathepsin B expression at 20 uM by Western blotting analysis. The class given is subcellular.
Experiment [13] deals with HT-1080. In words: Induction of autophagic flux in human HT-1080 cells assessed as increase in LC3-II protein expression at 10 uM incubated for 24 hrs by Western blotting analysis. In kind it is functional, cell-based.
Experiment [14] concerns Lysosomal membrane. The experiment can be described thus: Disruption of lysosomal membrane in human HT-1080 cells assessed as downregulation of cathepsin B expression at 5 uM incubated for 12 hrs by Western blotting analysis. In kind it is subcellular.
Experiment [15] deals with Lysosomal membrane. The experiment can be described thus: Disruption of lysosomal membrane in human HT-1080 cells assessed as downregulation of cathepsin B expression at 20 uM incubated for 12 hrs by Western blotting analysis. In kind it is subcellular.

Active and inactive are the calls of the source. No cut-off for these calls is given here.

As a reminder, the IC50 is the point on the concentration scale where inhibition reaches its midpoint. Regarding `O=C(C[C@H]1CN2C3CC(OC(=O)C4CCCCC4)C1C2CN(Cc1ccccc1)C3)NCc1ccccc1` (some centres not stated), in the experiment with HeLa [1], the IC50 amounted to 5.2 µM. In addition, the “fold change (FC)” value in experiment [2] amounted to 3.7.
As to `CCCCCCNC(=O)/C=C1/CN2C3CC(OC(=O)C(C)C)C1C2CN(C(=O)OCc1ccccc1)C3` (configuration not stated), the IC50 in the experiment on HeLa [1] was 23.1 µM. Further, in experiment [2], the “fold change (FC)” value came to 1.3.
For `CC(C)CNC(=O)C[C@H]1CN2C3CC(OC(=O)CC(C)C)C1C2CN(CC(C)C)C3` (some centres not stated), in the experiment on HeLa [1], the IC50 was more than 100 µM. Besides, the “fold change (FC)” value in experiment [2] was 1.2.
For `CCOC(=O)C[C@H]1CN2C3CC(=O)C1C2CN(Cc1ccccc1)C3` (some centres not stated), in the experiment with HeLa [1], the IC50 was more than 100 µM. In addition, the outcome with HeLa [3] was inactive.
In the case of `O=C(C[C@H]1CN2C3CC(=O)C1C2CN(Cc1ccccc1)C3)NCc1ccccc1` (some centres not stated), in the experiment with HeLa [1], the IC50 was more than 100 µM. Moreover, the result with HeLa [3] was inactive.
As for `CC(C)CNC(=O)C[C@H]1CN2C3CC(OC(=O)Cc4ccccc4)C1C2CN(CC(C)C)C3` (some centres not stated), in the experiment with HeLa [1], the IC50 was more than 100 µM. For the same molecule, the “fold change (FC)” value in experiment [2] is 1.3.
With `CCCCCCNC(=O)C[C@H]1CN2C3CC(OC(=O)C(C)C)C1C2CN(Cc1ccccc1)C3` (some centres not stated), the outcome with HT-1080 [4] and in the experiment with HT-1080 [13] was Active. For the same molecule, the Activity entry was “Active; Compound Observed To Enlarge Lysosome And Increase Lysosomal Ph Similar To Chloroquine” in the experiment on Lysosomal membrane [5]; “Dose-dependent-effect” with Lysosomal membrane [6]; “Active; Compared To Compound Alone Or Rapamycin Alone Treatment” with HeLa [7]; “Not active; Compared To Compound Alone Or Chloroquine Alone Treatment; Mechanism Of Action Similar To Chloroquine” with HeLa [11]; “Time-dependent-effect” in the experiment with Lysosomal membrane [12]. In the experiment with HeLa [1], the IC50 came out at 10.1 µM. The “fold change (FC)” value in [2] is on record as 2.4; in experiment [8], 1.3; in experiment [10] it was 2.6. For the same molecule, the outcome in the experiment with Lysosomal membrane [9] was inactive.
Regarding `CCCCCCNC(=O)/C=C1/CN2C3CNCC2C1C(OC(=O)C(C)C)C3` (configuration not stated), in the experiment with HeLa [1], the IC50 is more than 100 µM. The “fold change (FC)” value in experiment [2] was 1.3.
Consider `CC(C)CNC(=O)C[C@H]1CN2C3CC(OC(=O)CC(C)C)C1C2CN(Cc1ccccc1)C3` (some centres not stated), for which, in the experiment with HeLa [1], the IC50 was 15.7 µM. Moreover, the “fold change (FC)” value in experiment [2] amounted to 1.7.
`CCCCCCNC(=O)/C=C1/CN2C3CC(OC(=O)C(C)C)C1C2CN(C(=O)c1ccccc1)C3` (configuration not stated): in the experiment with HeLa [1], the IC50 is more than 100 µM. The “fold change (FC)” value in experiment [2] was determined as 1.3.
As for `CC(C)CC(=O)OC1CC2CN(CC(C)C)CC3C1[C@@H](CC(=O)NCc1ccccc1)CN23` (some centres not stated), the IC50 with HeLa [1] worked out at 34.2 µM. Also, the “fold change (FC)” value in experiment [2] stood at 2.5.
The corresponding values for `CC(C)(C)C(=O)OC1CC2CN(Cc3ccccc3)CC3C1[C@@H](CC(=O)NCc1ccccc1)CN23` (some centres not stated) are 5.6 µM and 3.8.
For `CC(C)CC(=O)OC1CC2CN(Cc3ccccc3)CC3C1[C@@H](CC(=O)NCc1ccccc1)CN23` (some centres not stated), in the experiment with HeLa [1], the IC50 worked out at 10 µM. Also, in [2], the “fold change (FC)” value is reported as 3.
For the molecule `CC(C)C(=O)OC1CC2CN(Cc3ccccc3)CC3C1[C@@H](CC(=O)NCc1ccccc1)CN23` (some centres not stated), in the experiment on HeLa [1], the IC50 was 19.3 µM. Besides, in [2], the “fold change (FC)” value is on record as 1.9.
Take `CO/C1=C\C(C)=C\[C@@H](C)[C@@H](O)[C@@H](C)C/C(C)=C/C=C/[C@H](OC)[C@@H]([C@@H](C)[C@@H](O)[C@H](C)[C@@]2(O)C[C@@H](O)[C@H](C)[C@@H](C(C)C)O2)OC1=O`: the result in the experiment with Lysosomal membrane [14] was Active.
As to `O=C(C[C@H]1CN2C3CC(OC(=O)C4CC4)C1C2CN(Cc1ccccc1)C3)NCc1ccccc1` (some centres not stated), in the experiment on HeLa [1], the IC50 is 18 µM. For the same molecule, in [2], the “fold change (FC)” value was 5.7.
On to `CCCCCCCCCCCCCCCC(=O)OC1CC2CN(Cc3ccccc3)CC3C1[C@@H](CC(=O)NCc1ccccc1)CN23` (some centres not stated), for which the IC50 in the experiment on HeLa [1] came out at 5.5 µM. For the same molecule, in experiment [2], the “fold change (FC)” value is 1.1.
Regarding `CC(C)C(=O)OC1CC2CN(Cc3ccccc3)CC3C1[C@@H](CC(=O)NCC1CCCCC1)CN23` (some centres not stated), in the experiment with HeLa [1], the IC50 was determined as 15.5 µM. For the same molecule, the “fold change (FC)” value in experiment [2] was determined as 2.4; in experiment [8], 2; in [10], 2.1.
Turning to `CCCCC(=O)OC1CC2CN(Cc3ccccc3)CC3C1[C@@H](CC(=O)NCc1ccccc1)CN23` (some centres not stated), the IC50 in the experiment with HeLa [1] came out at 6.7 µM. The “fold change (FC)” value in [2] is 5.4.
`CC(C)NC(=O)C[C@H]1CN2C3CC(OC(=O)C(C)C)C1C2CN(Cc1ccccc1)C3` (some centres not stated): the IC50 with HeLa [1] is more than 100 µM. Further, the “fold change (FC)” value in experiment [2] came to 1.8.
Take `O=C(C[C@H]1CN2C3CC(OC(=O)Cc4ccccc4)C1C2CN(Cc1ccccc1)C3)NCc1ccccc1` (some centres not stated): in the experiment on HeLa [1], the IC50 came to 14.8 µM. In experiment [2], the “fold change (FC)” value turned out to be 2.
In the case of `CC(C)CNC(=O)C[C@H]1CN2C3CC(OC(=O)Cc4ccccc4)C1C2CN(Cc1ccccc1)C3` (some centres not stated), the IC50 with HeLa [1] is 47.9 µM. Moreover, in [2], the “fold change (FC)” value is on record as 1.6.
Regarding `CC(=O)OC1CC2CN(Cc3ccccc3)CC3C1[C@@H](CC(=O)NCc1ccccc1)CN23` (some centres not stated), the IC50 with HeLa [1] is 78.4 µM. Also, the “fold change (FC)” value in [2] amounted to 3.5.
Take `CC(C)C(=O)OC1CC2CN(CC3CCCCC3)CC3C1[C@@H](CC(=O)NCC1CCCCC1)CN23` (some centres not stated): in the experiment with HeLa [1], the IC50 came out at 6 µM. Also, the “fold change (FC)” value in experiment [2] is 2.9; in [8], 1.4; in experiment [10] it was 3.7.
Regarding `CCCCCCNC(=O)/C=C1/CN2C3CC(OC(=O)C(C)C)C1C2CN(Cc1ccccc1)C3` (configuration not stated), in the experiment with HeLa [1], the IC50 worked out at 12.5 µM. The “fold change (FC)” value in [2] is listed as 3.
The corresponding values for `O=C(C[C@H]1CN2C3CC(OC(=O)C4CCCCCC4)C1C2CN(Cc1ccccc1)C3)NCc1ccccc1` (some centres not stated) are 5.1 µM and 2.2.
The corresponding values for `CC(C)CCC(=O)OC1CC2CN(Cc3ccccc3)CC3C1[C@@H](CC(=O)NCc1ccccc1)CN23` (some centres not stated) are 6.2 µM and 3.7.
Take `CCN(CC)CCCC(C)Nc1ccnc2cc(Cl)ccc12` (configuration not stated) [CHLOROQUINE]: the outcome in the experiment on Lysosomal membrane [15] was Active. In the experiment with HeLa [1], the IC50 was 43.1 µM. Further, the “fold change (FC)” value in [2] was found to be 2.
As for `CCOC(=O)C[C@H]1CN2C3CNCC2C1C(=O)C3` (some centres not stated), in the experiment with HeLa [1], the IC50 is more than 100 µM. The result in the experiment with HeLa [3] was inactive.
With `CCCCCCNC(=O)/C=C1/CN2C3CC(OC(=O)C(C)C)C1C2CN(C)C3` (configuration not stated), the IC50 with HeLa [1] was more than 100 µM. In experiment [2], the “fold change (FC)” value was 2.1.
As for `CNC(=O)C[C@H]1CN2C3CC(OC(=O)C(C)C)C1C2CN(Cc1ccccc1)C3` (some centres not stated), the IC50 in the experiment on HeLa [1] is more than 100 µM. For the same molecule, the “fold change (FC)” value in experiment [2] is 1.9.
Consider `C#CCCCC(=O)OC1CC2CN(Cc3ccccc3)CC3C1[C@@H](CC(=O)NCc1ccccc1)CN23` (some centres not stated), for which the IC50 in the experiment with HeLa [1] was found to be 15.7 µM. In experiment [2], the “fold change (FC)” value came out at 4.3.
On to `CC(C)CN1CC2CC(OC(=O)Cc3ccccc3)C3C(C1)N2C[C@@H]3CC(=O)NCc1ccccc1` (some centres not stated), for which the IC50 in the experiment on HeLa [1] was 94.2 µM. Moreover, the “fold change (FC)” value in [2] turned out to be 1.8.
Regarding `O=C(C[C@H]1CN2C3CC(O)C1C2CN(Cc1ccccc1)C3)NCc1ccccc1` (some centres not stated), in the experiment with HeLa [1], the IC50 was more than 100 µM. In addition, the outcome with HeLa [3] was inactive.
